Assay results taken from US4774345A, “Amine-complexed zinc salts of organic diacids” (Engelhard Corporation, priority 1986, dated 1988).
“Also recorded” adds a separate entry of the source. Like-named read-outs stand apart in the source and are kept apart here.

Key:
[1] = Electrochemical testing (Tafel Plot), corrosion current, corrosion potential and pH of simulated acid rain saturated with pigment
[2] = Primary skin irritation; format: in vivo; details: 0.5 g in Saline Paste
[3] = Draize eye irritation; format: in vivo; details: 100 mg
[4] = Salt spray exposure, Example VI (ASTM B117-73; alkyd and latex primers); details: for Salt spray durability, in words: FIG. 3, alkyd formulation
[5] = Salt spray exposure, Example V (alkyd and latex primers)
[6] = Acute oral toxicity; format: in vivo
[7] = water
[8] = in vivo; cited from earlier work
[9] = Table III, simulated acid rain electrolyte pH about 4.2, saturated with pigment

In the case of `NCCN.O=C([O-])CCCCC(=O)[O-].[Zn+2]` [Compound 3, Zinc Adipate Ethylenediamine], the “Corrosion Curr. (Icorr)” value [1, 9] is reported as 78 microamps, the “Skin Irritation, rating in words” value [2] is reported as “minimally irritating” and the “Eye Irritation, rating in words” value [3] is reported as “moderately-irritating”. The “Salt spray durability, in words” value [4] was “superior to "Zinc Yellow" (zinc chromate) in salt spray durability”.
With `CC(N)CN.O=C([O-])CCCCC(=O)[O-].[Zn+2]` [Compound 4, Zinc Adipate Propylenediamine] the “Salt spray durability, in words” value [4] was “superior to "Zinc Yellow" (zinc chromate) in salt spray durability”.
For `NCCN.O=C([O-])CCCCCCCC(=O)[O-].[Zn+2]` [Compound 5, Zinc Azelate Ethylenediamine], the pH ([1]; Table III) was 6.78, the “Corrosion Pot. (Ecorr)” value ([1]; Table III, against saturated calomel electrode) was -667 millivolts and the “Corrosion Curr. (Icorr)” value [1, 9] was 82 microamps. The “Effect of kaolin on salt spray performance” value ([5]; distended on kaolin) was “anomolously reduced the performance”.
In the case of `NCCN.O=C([O-])CCCCCCCCC(=O)[O-].[Zn+2]` [Compound 6, Zinc Sebacate Ethylenediamine], the “Corrosion Curr. (Icorr)” value [1] is reported as 170 microamps, the “Corrosion Pot. (Ecorr)” value [1] is reported as -462 millivolts and the pH [1] is reported as 6.8. The “Skin Irritation, rating in words” value [2] was “minimally irritating” and the “Eye Irritation, rating in words” value [3] was “severely irritating”.
For `O=C([O-])CCCCCCCCCCC(=O)[O-].OCCN(CCO)CCO.[Zn+2]` [Compound 10, Zinc Dibasate Triethanolamine], the “Corrosion Curr. (Icorr)” value [1] was 93 microamps, the “Corrosion Pot. (Ecorr)” value [1] was -580 millivolts and the pH [1] was 7.2.
For `NCCN.O=C([O-])CCCCCCCCCCC(=O)[O-].[Zn+2]` [Compound 11, Zinc Dodecanedioate Ethylenediamine], the “Corrosion Curr. (Icorr)” value [1, 9] was 130 microamps and the “Salt spray durability, in words” value [4] was “superior to "Zinc Yellow" (zinc chromate) in salt spray durability”.
In the case of `CCNCC.O=C([O-])CCCCCCCCCCC(=O)[O-].[Zn+2]` [Compound 12, Zinc Dodecanedioate Diethylamine], the “Corrosion Curr. (Icorr)” value [1] is reported as 197 microamps.
In the case of `NCCN.O=C([O-])c1ccccc1C(=O)[O-].[Zn+2]` [Compound 17, Zinc Phthalate Ethylenediamine], the “Corrosion Curr. (Icorr)” value [1] is reported as 83 microamps and the “Skin Irritation, rating in words” value [2] is reported as “non-irritating”.
For `NCCN.O=C([O-])c1cccc(C(=O)[O-])c1.[Zn+2]` [Compound 18, Zinc Isophthalate Ethylenediamine], the “Salt spray durability, in words” value [4] was “superior to "Zinc Yellow" (zinc chromate) in salt spray durability”.
In the case of Zinc Dibasate Diethylamine [Compound 9], the “Corrosion Pot. (Ecorr)” value [1] is reported as -570 millivolts, the pH [1] is reported as 7.0 and the “Acute oral toxicity, mortality” value ([6]; Oral (5 g/kg in Corn Oil)) is reported as 0%. The “Eye Irritation, rating in words” value [3] was “mildly irritating”.
For “Zinc Dibasate Dimethylamine [Compound 21]”, the “Corrosion Curr. (Icorr)” value [1] was 82 microamps and the “Corrosion Pot. (Ecorr)” value [1] was -610 millivolts.
In the case of Zinc Dibasate Piperidine [Compound 24], the “Corrosion Curr. (Icorr)” value [1] is reported as 40 microamps and the “Corrosion Pot. (Ecorr)” value [1] is reported as -610 millivolts.
In the case of “Zinc Dibasate Propylenediamine [Compound 8]”, the “Solubility Description” value [7] is reported as “SS (key: PINS: practically insoluble (<.1 g/100 cc H2 O); SS: slightly soluble (.1 to 1 g/100 cc H2 O); MS: moderately soluble)”.
With “Zinc Sulfonyldiphenolate Ethylenediamine [Compound 15]” the “Corrosion Curr. (Icorr)” value [1] was 170 microamps, the “Corrosion Pot. (Ecorr)” value [1] was -592 millivolts and the pH [1] was 7.67. For the same compound, the “Skin Irritation, rating in words” value [2] was “non-irritating” and the “Eye Irritation, rating in words” value [3] was “severely irritating”.
In the case of “Zinc Thiodiphenolate Ethylenediamine [Compound 14]”, the “Corrosion Curr. (Icorr)” value [1] is reported as 52.5 microamps, the “Corrosion Pot. (Ecorr)” value [1] is reported as -570 millivolts and the pH [1] is reported as 8.60. For the same compound, the “Toxicity characteristics (overall statement)” value ([6]; acute oral, skin and eye tests of Table VIII) was “unacceptable toxicity characteristics”, the “Eye Irritation, rating in words” value [3] was “extremely irritating” and the “Effect of kaolin on salt spray performance” value [5] was “kaolin likewise enhanced the performance”. The “Hours to failure in salt spray (performance level)” value [5] was “approximately 780 hours” and the “Paint panel durability in salt spray, in words” value [4] was “slightly less than half the durability achieved by the commercial "Zinc Yellow" (zinc chromate) corrosion-inhibitor formulation; also recorded: performed markedly better than commercially available corrosion inhibitors, such as Nalzin, Halox, Busan, "Moly White" and zinc phosphate”.
In the case of “Zinc Thiodiphenolate Propylenediamine [Compound 20]”, the “Corrosion Curr. (Icorr)” value [1] is reported as 46 microamps, the “Corrosion Pot. (Ecorr)” value [1] is reported as -560 millivolts and the pH [1] is reported as 8.18.
For zinc chromate, the TDLo [8] is given as 12 mg/kg.
